{
  "source": "patent US12590965B2",
  "about": "“Palmitoyl protein biomarkers in purified extracellular vesicles for early identification of clinically significant prostate cancer” (priority 2012, dated 2026)",
  "key": {"[1]": {"tested_on": "PC3 cells", "experiment": "Titration of 2-bromopalmitate to a non-toxic concentration in PC3 cells", "type": "cell-based", "conditions": "24 hours, serum-starvation", "procedure": "(§1) The PC3 cell line was obtained from the American Type Culture Collection (ATCC). The DU145DIAPH3-KD cell line, stably transfected with DIAPH3 shRNA, was generated in our laboratories. PC3 and DU145DIAPH3-KD cell lines were cultured in DMEM (Invitrogen). All cells were supplemented with 10% foetal bovine serum (Denville Scientific), 2 mM L-glutamine (Invitrogen) and 1% PenStrep (Invitrogen). DU145DIAPH3-KD cells were additionally selected with 2 μg/mL puromycin as described. All cells were grown at 37° C. and 5% CO2. Cell viability of the EV-producer cells was tested with the 0.4% Trypan Blue (Sigma) exclusion method. All cell lines were routinely tested for mycoplasma contamination by using the MycoAlert PLUS Mycoplasma Detection Kit (Lonza). Finally, in order to collect EVs from cells in which palmitoylation was inhibited, PC3 cells were treated for 24 hours with 2-bromohexadecanoic acid (Sigma), also known as 2-bromopalmitate (0.5, 1, 5, 10, 20, 50 and 100 μM), in serum-starvation.\nFinally, we investigated if palmitoylation had any influence on the localization of select proteins in EVs. To do so, we titrated the concentration of 2-bromopalmitate (2-BP), a general inhibitor of palmitoylation, to a non-toxic concentration of 10 μM in PC3 cells (data not shown) in order to avoid any alterations in the EV shedding (FIG. 18(d)) and recovery of EV-protein (FIG. 18(e)). […]"}, "[2]": {"tested_on": "palmitoylation in PC3 cells", "experiment": "Immunoblot of protein abundance in PC3 L- and S-EVs after inhibition of palmitoylation", "type": "cell-based", "procedure": "as §1\nThe isolation of EVs was conducted as previously described with minor modifications (Vagner et al. Large extracellular vesicles carry most of the tumour DNA circulating in prostate cancer patient plasma. J Extracell Vesicles. 2018; 7(1):1505403; Minciacchi et al. Large oncosomes contain distinct protein cargo and represent a separate functional class of tumor-derived extracellular vesicles. Oncotarget. 2015; 6(13):11327-11341; Minciacchi et al. MYC mediates large oncosome-induced fibroblast reprogramming in prostate cancer. Cancer Res. 2017; 77(9):2306-2317). Cells were grown on 18×150 cm^2-cell culture plates (Corning) until 90% confluence, washed in PBS and serum-starved for 24 hours before the collection of conditioned cell media. The conditioned media was cleared by differential centrifugation of floating cells at 300 g, of cell debris at 2,800 g for 10 min, and spun in an ultracentrifuge at 10,000 g for 30 min (4° C., k-factor 2547.2) for the collection of L-EVs. The supernatant was then spun at 100,000 g for 60 min (4° C., k-factor 254.7) for the collection of S-EVs. Both 10,000 g and 100,000 g pellets were then subjected to Optiprep™ (Sigma) density gradient purification. Fresh pelleted EVs were resuspended in 0.2 μm-filtered PBS and deposited at the bottom of an ultracentrifuge tube. […]\nImmunoblotting analysis was performed as described (Zhou et al. Low-background Acyl-biotinyl exchange largely eliminates the co-isolation of non-S-Acylated proteins and enables deep S-Acylproteomic analysis. Anal Chem. 2019; 91(15):9858-9866). […] Densitometric quantification of films was performed with the ImageJ software (v1.52a). […]"}, "[3]": {"conditions": "10 μM 2-BP for 24 h, PC3 L- and S-EVs"}},
  "note": "“Also recorded” adds a separate entry of the source.",
  "data": [
    {"smiles": "CCCCCCCCCCCCCCC(Br)C(=O)O", "note": "(centres unmarked) [2-BP, 2-bromohexadecanoic acid]", "values": [
      {"measurement": "non-toxic concentration", "setting": "[1]", "value": 10, "unit": "µM"},
      {"measurement": "ABCC4 in EVs", "setting": "[2]; [3]", "value": "decrease; also recorded: reduced"},
      {"measurement": "STEAP1 in EVs", "setting": "[2]; [3]", "value": "decrease"},
      {"measurement": "STEAP2 in EVs", "setting": "[2]; [3]", "value": "decrease; also recorded: reduced"},
      {"measurement": "Cav-1 levels in EVs", "setting": "[2]; 10 μM 2-BP, PC3 EVs", "value": "did not change; also recorded: did not alter the localization"}
    ]}
  ]
}
